Experimental data as given in patent US9073853B2, “Cycloalkane carboxylic acid derivatives as CXCR3 receptor antagonists” (Sanofi, priority 2011, dated 2015).

molecular target: human CXCR3-A receptor (Homo sapiens (Human), UniProt P49682); test: 125I-CXCL10 competition radioligand binding assay; conditions: displacement of 125I-CXCL10 from membranes of CHO cells expressing human recombinant CXCR3-A
Outline: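 Membranes from a recombinant cell line expressing human CXCR3-A (10-20 μg protein) were incubated with 125I-CXCL10 and test compound for 60 min at 25° C, then filtered onto PEI-soaked GF/B filters and gamma-counted. IC50 and Hill slope came from four-parameter nonlinear fitting of competition curves.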

Sequence of human CXCR3-A receptor (P49682 whole entry): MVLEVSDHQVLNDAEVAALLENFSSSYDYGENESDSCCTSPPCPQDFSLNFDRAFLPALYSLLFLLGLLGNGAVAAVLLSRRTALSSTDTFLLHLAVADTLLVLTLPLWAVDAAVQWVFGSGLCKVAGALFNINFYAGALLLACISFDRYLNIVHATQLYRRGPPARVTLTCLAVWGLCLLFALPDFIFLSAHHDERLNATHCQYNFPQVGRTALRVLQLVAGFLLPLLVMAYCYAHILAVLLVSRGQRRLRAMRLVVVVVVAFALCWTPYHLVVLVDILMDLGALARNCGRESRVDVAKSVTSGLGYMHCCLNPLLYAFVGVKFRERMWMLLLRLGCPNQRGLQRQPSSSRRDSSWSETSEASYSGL

IC50	SMILES
7000 nM	COc1cc(CN(C[C@H]2CC[C@H](C(=O)O)CC2)[C@H]2CCc3cc(Cl)ccc32)ccc1OCCN1C(=O)CC2(CCCC2)CC1=O [Example 147, 4-[(((S)-5-Chloro-indan-1-yl)-{4-[2-(7,9-dioxo-8-aza-spiro[4.5]dec-8-yl)-ethoxy]-3-methoxy-benzyl}-amino)-methyl]-cyclohexanecarboxylic acid]
121 nM	CCC(c1ccc(Cl)cc1)N(Cc1ccc(OCCN2C(=O)CCC2=O)c(C)c1)C[C@H]1CC[C@H](C(=O)O)CC1 (stereo partly drawn) [Example 65, trans-4-[([1-(4-Chloro-phenyl)-propyl]-{4-[2-(2,5-dioxo-pyrrolidin-1-yl)-ethoxy]-3-methyl-benzyl}-amino)-methyl]-cyclohexanecarboxylic acid]
26 nM	COc1cc(CN(C[C@H]2CC[C@H](C(=O)O)CC2)[C@H]2CCc3c2ccc(Cl)c3F)ccc1OCCN1C(=O)CCC1=O [Example 148, trans-4-[(((S)-5-Chloro-4-fluoro-indan-1-yl)-{4-[2-(2,5-dioxo-pyrrolidin-1-yl)-ethoxy]-3-methoxy-benzyl}-amino)-methyl]-cyclohexanecarboxylic acid]
19 nM	COc1cc(CN(C[C@H]2CC[C@H](C(=O)O)CC2)[C@@H](C)c2ccc(Cl)cc2)ccc1OCCN1C(=O)CCC1=O [Example 5, trans-4-[([(S)-1-(4-Chloro-phenyl)-ethyl]-{4-[2-(2,5-dioxo-pyrrolidin-1-yl)-ethoxy]-3-methoxy-benzyl}-amino)-methyl]-cyclohexanecarboxylic acid]
145 nM	COc1cc(CN(C[C@@H]2C[C@H]2C(=O)O)C(C)c2ccc3c(c2)CCO3)ccc1OCCN1C(=O)CCC1=O (stereo partly drawn) [Example 112, (1R,2R)-2-[([1-(2,3-Dihydro-benzofuran-5-yl)-ethyl]-{4-[2-(2,5-dioxo-pyrrolidin-1-yl)-ethoxy]-3-methoxy-benzyl}-amino)-methyl]-cyclopropanecarboxylic acid]

Further lines, the molecule ahead of its results:

SMILES	IC50
Cc1cc(CN(C[C@H]2CC[C@H](C(=O)O)CC2)[C@H](C)c2ccc(Cl)cc2)ccc1OCCN1C(=O)CCC1=O [Example 9, trans-4-[([(R)-1-(4-Chloro-phenyl)-ethyl]-{4-[2-(2,5-dioxo-pyrrolidin-1-yl)-ethoxy]-3-methyl-benzyl}-amino)-methyl]-cyclohexanecarboxylic acid]	32 nM
COc1cc(CN(C[C@H]2CC[C@H](C(=O)O)C2)[C@H](C)c2ccc3c(c2)CCO3)ccc1OCCN1C(=O)CCC1=O [Example 109, (1S,3S)-3-[([(R)-1-(2,3-Dihydro-benzofuran-5-yl)-ethyl]-{4-[2-(2,5-dioxo-pyrrolidin-1-yl)-ethoxy]-3-methoxy-benzyl}-amino)-methyl]-cyclopentanecarboxylic acid]	73 nM
COc1cc(CN(C[C@H]2CC[C@H](C(=O)O)C2)[C@@H](C)c2ccc(Cl)cc2)ccc1OCCN1C(=O)CCC1=O [Example 100, (1S,3S)-3-[([(S)-1-(4-Chloro-phenyl)-ethyl]-{4-[2-(2,5-dioxo-pyrrolidin-1-yl)-ethoxy]-3-methoxy-benzyl}-amino)-methyl]-cyclopentanecarboxylic acid]	108 nM
C[C@@H](c1ccc(Cl)cc1)N(Cc1ccc(OCCN2C(=O)CCC2=O)cc1)C[C@H]1CC[C@H](C(=O)O)CC1 [Example 79, trans-4-[([(S)-1-(4-Chloro-phenyl)-ethyl]-{4-[2-(2,5-dioxo-pyrrolidin-1-yl)-ethoxy]-benzyl}-amino)-methyl]-cyclohexanecarboxylic acid]	154 nM
COc1cc(CN(C[C@H]2CC[C@H](C(=O)O)CC2)[C@@H](C)c2ccc(Cl)cc2)ccc1C#CCN1C(=O)CCC1=O [Example 55, trans-4-[([(S)-1-(4-Chloro-phenyl)-ethyl]-{4-[3-(2,5-dioxo-pyrrolidin-1-yl)-prop-1-ynyl]-3-methoxy-benzyl}-amino)-methyl]-cyclohexanecarboxylic acid]	6600 nM
